Measured values taken from article PMC6222886, “Isolation of Tricin as a Xanthine Oxidase Inhibitor from Sweet White Clover (Melilotus albus) and Its Distribution in Selected Gramineae Species” (Molecules : A Journal of Synthetic Chemistry and Natural …, 2018).

Biological target: T1, xanthine oxidase (XO) (Bos taurus, UniProt P80457)
T1 construct: gene XDH
Experiment: xanthine oxidase inhibition assay with Lineweaver-Burk kinetics (IC50 […]; KI […])
Assay type: biochemical

T1 sequence (P80457 2-1332): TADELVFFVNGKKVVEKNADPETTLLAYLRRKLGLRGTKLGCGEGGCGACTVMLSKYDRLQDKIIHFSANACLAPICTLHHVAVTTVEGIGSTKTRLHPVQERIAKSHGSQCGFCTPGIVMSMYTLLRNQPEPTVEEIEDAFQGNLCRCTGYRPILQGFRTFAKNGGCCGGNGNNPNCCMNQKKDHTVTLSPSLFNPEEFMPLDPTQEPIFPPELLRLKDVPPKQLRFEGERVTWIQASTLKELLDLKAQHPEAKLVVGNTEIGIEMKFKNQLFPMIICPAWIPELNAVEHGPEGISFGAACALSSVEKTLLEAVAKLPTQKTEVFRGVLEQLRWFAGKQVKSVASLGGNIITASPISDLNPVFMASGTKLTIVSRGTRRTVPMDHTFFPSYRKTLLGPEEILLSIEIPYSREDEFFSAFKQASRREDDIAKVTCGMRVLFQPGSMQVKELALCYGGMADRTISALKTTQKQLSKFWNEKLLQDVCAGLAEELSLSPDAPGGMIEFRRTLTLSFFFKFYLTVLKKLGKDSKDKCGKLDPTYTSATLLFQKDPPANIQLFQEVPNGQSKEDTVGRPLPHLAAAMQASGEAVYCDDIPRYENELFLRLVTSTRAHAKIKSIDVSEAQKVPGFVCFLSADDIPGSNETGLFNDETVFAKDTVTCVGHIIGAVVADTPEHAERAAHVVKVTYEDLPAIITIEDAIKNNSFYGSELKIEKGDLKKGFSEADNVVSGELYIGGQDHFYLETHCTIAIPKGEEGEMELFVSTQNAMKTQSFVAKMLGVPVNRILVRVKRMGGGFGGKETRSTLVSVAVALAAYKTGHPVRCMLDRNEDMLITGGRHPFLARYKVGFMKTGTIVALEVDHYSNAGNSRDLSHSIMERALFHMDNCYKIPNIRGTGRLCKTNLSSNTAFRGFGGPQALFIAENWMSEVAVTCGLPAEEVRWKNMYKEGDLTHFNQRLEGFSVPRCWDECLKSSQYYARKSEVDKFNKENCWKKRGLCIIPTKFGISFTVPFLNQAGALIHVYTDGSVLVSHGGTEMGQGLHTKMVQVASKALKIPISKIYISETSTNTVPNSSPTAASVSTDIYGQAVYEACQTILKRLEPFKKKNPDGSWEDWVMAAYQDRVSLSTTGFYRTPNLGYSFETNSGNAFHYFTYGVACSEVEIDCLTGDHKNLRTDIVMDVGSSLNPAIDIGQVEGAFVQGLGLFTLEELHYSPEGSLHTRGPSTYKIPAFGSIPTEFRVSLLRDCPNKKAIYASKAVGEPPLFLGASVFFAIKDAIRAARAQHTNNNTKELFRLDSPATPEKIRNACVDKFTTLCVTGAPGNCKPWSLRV

`COc1cc(-c2cc(=O)c3c(O)cc(O)cc3o2)cc(OC)c1O` [tricin] gave a Ki of 470 nM.
